Earlier results in patent publication US20050112093A1, “Combination therapy for HCV infection” (priority 2003, published 2005).

Experiments:
HCV [1] = tested on: HCV
[2] = majority of patients, over the course of treatment
HCV [3] = tested on: HCV; remark: listed apart in the source

Row | Compound | serum HCV RNA levels (HCV [1]; ribavirin treatment alone) | liver enzyme levels (HCV [1]; ribavirin used alone, during treatment, return to baseline when treatment is discontinued) | mean decrease in hemoglobin [2] [g/dL] | patients achieving a sustained virological response (SVR) (HCV [3]; chronic HCV infection, following six months of therapy) [%] | SVR (HCV [3]; treatment naïve patients, IFN-α alone, 6 months, the latter (upper) value representing 48 weeks of treatment)
1 | NC(=O)c1ncn([C@@H]2O[C@H](CO)[C@@H](O)[C@H]2O)n1 [ribavirin, 1-beta-D-ribofuranosyl-1H-1,2,4-triazole-3-carboxamide] | only minimally and transiently decreases serum HCV RNA levels | decreases liver enzyme levels in most patients during treatment | 2 to 3 |  | 
2 | IFN-α |  |  |  | 20 | 6-17%
